# Literature values, collected in patent US20240127967A1.
# Tested on: MARV
# Details: mouse, in vivo; cited from earlier work
structure (smiles),measurement,value
CC(C)COCC(CN(Cc1ccccc1)c1ccccc1)N1CCCC1 (stereo not shown) [Bepridil],protection of mice,strongly protected
